What is called IC50 is the midpoint of a concentration-inhibition curve.

Structures are written as SMILES.

The record followed here is US9783527B2, “Indazole ureas and method of use” (AbbVie Inc., priority 2014, dated 2017).

For the experiment, the target named is human Nav1.7 (Homo sapiens (Human), UniProt Q15858). As to the kind of experiment: FRET-based membrane potential assay, recombinant human sodium channel Nav1.7. Type of experiment: cell-based. The following applies: HEK293 cells stably expressing recombinant human Nav1.7; depolarization with veratridine (EC80) + scorpion venom. The method, then: FRET-Based Membrane Potential Assays.
Chain of human Nav1.7 (Q15858 whole entry): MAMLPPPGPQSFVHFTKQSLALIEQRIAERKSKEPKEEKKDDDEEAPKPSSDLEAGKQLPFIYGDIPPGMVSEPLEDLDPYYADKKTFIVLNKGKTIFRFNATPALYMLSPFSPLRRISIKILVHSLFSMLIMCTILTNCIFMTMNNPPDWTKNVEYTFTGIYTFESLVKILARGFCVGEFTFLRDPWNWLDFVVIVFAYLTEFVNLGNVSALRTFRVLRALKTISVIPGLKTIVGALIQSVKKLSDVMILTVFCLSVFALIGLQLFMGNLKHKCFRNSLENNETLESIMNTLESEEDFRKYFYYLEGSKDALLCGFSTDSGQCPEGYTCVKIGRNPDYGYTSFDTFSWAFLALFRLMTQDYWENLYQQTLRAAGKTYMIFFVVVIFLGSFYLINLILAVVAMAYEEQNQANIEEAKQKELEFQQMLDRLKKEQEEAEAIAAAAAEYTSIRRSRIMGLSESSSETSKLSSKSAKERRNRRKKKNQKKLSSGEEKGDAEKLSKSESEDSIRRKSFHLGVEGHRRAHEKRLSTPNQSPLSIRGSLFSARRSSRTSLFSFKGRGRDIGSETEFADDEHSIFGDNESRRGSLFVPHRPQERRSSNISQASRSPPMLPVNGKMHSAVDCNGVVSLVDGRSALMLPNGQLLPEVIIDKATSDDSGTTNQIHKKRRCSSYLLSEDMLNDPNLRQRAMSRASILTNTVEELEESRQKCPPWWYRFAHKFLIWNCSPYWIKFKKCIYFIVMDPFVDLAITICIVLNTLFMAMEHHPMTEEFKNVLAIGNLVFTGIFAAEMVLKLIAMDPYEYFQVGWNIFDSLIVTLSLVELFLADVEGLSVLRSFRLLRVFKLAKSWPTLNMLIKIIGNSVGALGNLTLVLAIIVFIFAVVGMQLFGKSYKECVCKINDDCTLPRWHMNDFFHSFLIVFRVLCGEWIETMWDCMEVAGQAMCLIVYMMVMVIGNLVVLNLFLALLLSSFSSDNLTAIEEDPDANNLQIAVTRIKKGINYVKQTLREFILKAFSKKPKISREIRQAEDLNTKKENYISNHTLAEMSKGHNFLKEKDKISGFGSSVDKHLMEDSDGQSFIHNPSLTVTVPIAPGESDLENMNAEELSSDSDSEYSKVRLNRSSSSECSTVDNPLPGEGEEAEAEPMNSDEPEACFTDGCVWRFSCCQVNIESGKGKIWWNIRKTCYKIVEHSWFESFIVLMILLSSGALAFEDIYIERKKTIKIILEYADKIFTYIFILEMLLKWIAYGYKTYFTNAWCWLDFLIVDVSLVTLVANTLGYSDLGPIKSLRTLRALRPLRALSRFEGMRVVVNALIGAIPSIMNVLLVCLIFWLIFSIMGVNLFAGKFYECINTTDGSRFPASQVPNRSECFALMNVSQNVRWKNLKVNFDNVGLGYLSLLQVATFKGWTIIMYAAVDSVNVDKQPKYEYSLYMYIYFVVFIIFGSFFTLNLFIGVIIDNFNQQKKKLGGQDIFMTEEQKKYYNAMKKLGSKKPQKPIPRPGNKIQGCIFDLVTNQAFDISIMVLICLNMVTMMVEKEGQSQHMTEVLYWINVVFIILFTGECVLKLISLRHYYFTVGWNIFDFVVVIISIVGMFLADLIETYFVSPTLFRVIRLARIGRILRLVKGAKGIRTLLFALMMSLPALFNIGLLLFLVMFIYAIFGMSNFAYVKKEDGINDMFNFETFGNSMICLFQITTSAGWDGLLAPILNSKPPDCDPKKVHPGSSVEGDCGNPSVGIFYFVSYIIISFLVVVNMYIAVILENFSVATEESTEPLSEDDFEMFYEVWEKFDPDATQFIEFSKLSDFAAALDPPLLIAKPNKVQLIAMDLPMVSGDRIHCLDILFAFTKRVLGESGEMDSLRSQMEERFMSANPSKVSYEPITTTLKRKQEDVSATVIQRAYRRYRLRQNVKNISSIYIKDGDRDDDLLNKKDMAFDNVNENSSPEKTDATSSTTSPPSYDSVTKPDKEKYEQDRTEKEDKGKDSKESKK
Recombinant, Human Sodium Channel, Nav1.7.
Two days prior to the experiment, frozen HEK293 cells stably expressing recombinant human Nav1.7 were quickly thawed and plated at 25,000 cells/well in growth medium [DMEM (Invitrogen #11965) with 10% HI FBS (Invitrogen #10082), 2 mM glutamine, 100 units/mL penicillin, 0.1 mg/mL streptomycin (PSG, Sigma #G1146), and 500 μg/mL Geneticin (Invitrogen #10131)] in black-walled, clear-bottom 384-well poly-D-lysine-coated assay plates (Greiner Bio-One, Frickenhausen, Germany) and incubated in a humidified 5% CO2 incubator at 37° C. On the day of the assay, medium was removed by aspiration, and cells were washed with assay buffer [HBSS (Invitrogen, Carlsbad, Calif.) containing 20 mM HEPES (Invitrogen, Carlsbad, Calif.)]. After washing, 30 μL assay buffer containing the fluorescent voltage-sensor probe CC2-DMPE (Invitrogen, Carlsbad, Calif.) at 20 μM and 0.01% pluronic F-127 (Invitrogen, Carlsbad, Calif.) was added to the cells. Cells were incubated for 40 minutes at room temperature in the dark. Following the incubation, the cells were washed and 30 μL assay buffer containing 2.5 μM DiSBAC2(3) substrate (Invitrogen, Carlsbad, Calif.) and 0.5 mM VABSC-1 (Invitrogen, Carlsbad, Calif.) was added to the cells. The cells were incubated for 90 minutes at room temperature in the dark. Fluorescence readings were made using a FLIPR®^TETRA (Molecular Devices, Sunnyvale Calif.) equipped with voltage-sensor probe optics. At the start of each experiment the optimal (EC80) concentration of depolarizing agent (veratridine) was determined by testing a dilution curve of assay buffer containing veratridine (Sigma-Aldrich, St. Louis, Mo.) and 1 mg/mL scorpion venom (SVqq, from Leiurus quinquestriatus; Sigma-Aldrich, St. Louis, Mo.). […] Test compounds in the daughter plate were diluted to (˜3×) solutions in assay buffer immediately before assaying. Using the FLIPR®^TETRA, 20 μL of the (3×) compound solutions were first added to the cells, then 20 μL of depolarizing solution (3×EC80 veratridine+SVqq) were added 3 minutes later to activate the channel. Changes in fluorescence were measured at wavelengths of 440-480 nm and 565-625 nm over the course of the experimental run. Membrane depolarization was expressed as a ratio of the maximum F440-480 nm/F565-625 nm reading above average baseline F440-480 nm/F565-625 nm reading. IC50 values were calculated from curve fits of the ratio data using a four-parameter logistic Hill equation (Accelrys Assay Explorer 3.3 Client, Accelrys, San Diego, Calif.) with percent inhibition plotted against compound concentration.
Regarding `O=C1N(CC(=O)N2CC3C[C@@H]4CC2C[C@H](C3)C4)CCN1c1cccc2c1cnn2-c1ccccc1F` [Example 107, 1-{2-[(1R,3r,6s,8S)-4-azatricyclo[4.3.1.1^3,8]undec-4-yl]-2-oxoethyl}-3-[1-(2-fluorophenyl)-1H-indazol-4-yl]imidazolidin-2-one], the IC50 was 1280 nM.
Consider `CN1C(=O)[C@H]2CN(C(=O)CN3CCN(c4cccc5c4cnn5-c4ccccc4F)C3=O)C[C@H]2C1=O` [Example 108, (3aR,6aS)-5-({3-[1-(2-fluorophenyl)-1H-indazol-4-yl]-2-oxoimidazolidin-1-yl}acetyl)-2-methyltetrahydropyrrolo[3,4-c]pyrrole-1,3(2H,3aH)-dione], for which the half-inhibitory concentration (IC50) stood at 12300 nM.
Then `COC1C2CCC1CN(C(=O)CN1CCN(c3cccc4c3cnn4-c3ccccc3F)C1=O)C2` (stereo not drawn) [Example 109, 1-[1-(2-fluorophenyl)-1H-indazol-4-yl]-3-[2-(8-methoxy-3-azabicyclo[3.2.1]oct-3-yl)-2-oxoethyl]imidazolidin-2-one], with 1020 nM.
Then `O=C(CN1CCN(c2cccc3c2cnn3-c2ccccc2F)C1=O)N1CCCC2(CC1)OCCO2` [Example 110, 1-[2-(1,4-dioxa-8-azaspiro[4.6]undec-8-yl)-2-oxoethyl]-3-[1-(2-fluorophenyl)-1H-indazol-4-yl]imidazolidin-2-one], with 2810 nM; and `O=C(CN1CCN(c2cccc3c2cnn3-c2ccccc2F)C1=O)N1C[C@@H]2[C@@H]3CC[C@@H](C3)[C@@H]2C1` [Example 111, 1-[1-(2-fluorophenyl)-1H-indazol-4-yl]-3-{2-[(3aR,4R,7S,7aS)-octahydro-2H-4,7-methanoisoindol-2-yl]-2-oxoethyl}imidazolidin-2-one], with 835 nM; and `CN1CCCC2CN(C(=O)CN3CCN(c4cccc5c4cnn5-c4ccccc4F)C3=O)CC21` (stereo not drawn) [Example 112, 1-[1-(2-fluorophenyl)-1H-indazol-4-yl]-3-[2-(1-methyloctahydro-6H-pyrrolo[3,4-b]pyridin-6-yl)-2-oxoethyl]imidazolidin-2-one], with 2690 nM.
Then `C[C@@H]1COCCN1C(=O)CN1CCN(c2cccc3c2cnn3-c2ccccc2F)C1=O` [Example 113, 1-[1-(2-fluorophenyl)-1H-indazol-4-yl]-3-{2-[(3R)-3-methylmorpholin-4-yl]-2-oxoethyl}imidazolidin-2-one], with 2270 nM.
Take `CN1[C@H]2CC[C@@H]1CN(C(=O)CN1CCN(c3cccc4c3cnn4-c3ccccc3F)C1=O)CC2` [Example 114, 1-[1-(2-fluorophenyl)-1H-indazol-4-yl]-3-{2-[(1R,6S)-9-methyl-3,9-diazabicyclo[4.2.1]non-3-yl]-2-oxoethyl}imidazolidin-2-one]: the IC50 was 14300 nM.
Then `CC(C)C1CCCN1C(=O)CN1CCN(c2cccc3c2cnn3-c2ccccc2F)C1=O` (stereo not drawn) [Example 116, 1-[1-(2-fluorophenyl)-1H-indazol-4-yl]-3-[2-(2-isopropylpyrrolidin-1-yl)-2-oxoethyl]imidazolidin-2-one], with 821 nM; and `CC(C)CC1CCCN1C(=O)CN1CCN(c2cccc3c2cnn3-c2ccccc2F)C1=O` (stereo not drawn) [Example 117, 1-[1-(2-fluorophenyl)-1H-indazol-4-yl]-3-[2-(2-isobutylpyrrolidin-1-yl)-2-oxoethyl]imidazolidin-2-one], with 1790 nM; and `C[C@@H]1CCCN1C(=O)CN1CCN(c2cccc3c2cnn3-c2ccccc2F)C1=O` [Example 118, 1-[1-(2-fluorophenyl)-1H-indazol-4-yl]-3-{2-[(2R)-2-methylpyrrolidin-1-yl]-2-oxoethyl}imidazolidin-2-one], with 1100 nM.
As for `COC(=O)[C@H]1CCCN1C(=O)CN1CCN(c2cccc3c2cnn3-c2ccccc2F)C1=O` [Example 119, methyl 1-({3-[1-(2-fluorophenyl)-1H-indazol-4-yl]-2-oxoimidazolidin-1-yl}acetyl)-D-prolinate], the IC50 was 1760 nM.
